According to article PMC9866191, “Novel 9-Benzylaminoacridine Derivatives as Dual Inhibitors of Phosphodiesterase 5 and Topoisomerase II for the Treatment of Colon Cancer” (Molecules, 2023):

Experiments:
Assay in all cases: NCI-60 one-dose screen
Assay type in all cases: cell-based
HCT-116 = settings: Homo sapiens, read-out: Growth inhibition %
MOLT-4 = settings: Homo sapiens; MOLT-4, Leukemia panel; single dose 10^−5 M; read-out: Growth inhibition %
OVCAR-8 = settings: Homo sapiens; OVCAR-8, Ovarian Cancer panel; single dose 10^−5 M; read-out: Growth inhibition %
SR = settings: Homo sapiens, Leukemia panel, single dose 10^−5 M, read-out: Growth inhibition %
UACC-257 = settings: Homo sapiens; UACC-257, Melanoma panel; single dose 10^−5 M; read-out: Growth inhibition %
NCI/ADR-RES = settings: Homo sapiens, Ovarian Cancer panel, single dose 10^−5 M, read-out: Growth inhibition %
T-47D = settings: Homo sapiens, T47D, Breast Cancer panel, single dose 10^−5 M, read-out: Growth inhibition %
TK-10 = settings: Homo sapiens; TK-10, Renal Cancer panel; single dose 10^−5 M; read-out: Growth inhibition %
SN12C = settings: Homo sapiens, Renal Cancer panel, single dose 10^−5 M, read-out: Growth inhibition %
HCT-15 = settings: Homo sapiens; HCT-15, Colon Cancer panel; single dose 10^−5 M; read-out: Growth inhibition %
OVCAR-3 = settings: Homo sapiens; OVCAR-3, Ovarian Cancer panel; single dose 10^−5 M; read-out: Growth inhibition %
OVCAR-5 = settings: Homo sapiens; OVCAR-5, Ovarian Cancer panel; single dose 10^−5 M; read-out: Growth inhibition %
SK-MEL-5 = settings: Homo sapiens; SK-MEL-5, Melanoma panel; single dose 10^−5 M; read-out: Growth inhibition %
A498 = settings: Homo sapiens; A498, Renal Cancer panel; single dose 10^−5 M; read-out: Growth inhibition %
MDA-MB-435 = settings: Homo sapiens; MDA-MB-435, Melanoma panel; single dose 10^−5 M; read-out: Growth inhibition %
OVCAR-4 = settings: Homo sapiens; OVCAR-4, Ovarian Cancer panel; single dose 10^−5 M; read-out: Growth inhibition %
HS 578T = settings: Homo sapiens, Breast Cancer panel, single dose 10^−5 M, read-out: Growth inhibition %
NCI-H522 = settings: Homo sapiens; NCI-H522, Non-small cell lung panel; single dose 10^−5 M; read-out: Growth inhibition %
MCF7 = settings: Homo sapiens; MCF7, Breast Cancer panel; single dose 10^−5 M; read-out: Growth inhibition %
EKVX = settings: Homo sapiens, Non-small cell lung panel, single dose 10^−5 M, read-out: Growth inhibition %
HL-60(TB) = settings: Homo sapiens, Leukemia panel, single dose 10^−5 M, read-out: Growth inhibition %
UACC-62 = settings: Homo sapiens; UACC-62, Melanoma panel; single dose 10^−5 M; read-out: Growth inhibition %
HCC-2998 = settings: Homo sapiens; HCC-2998, Colon Cancer panel; single dose 10^−5 M; read-out: Growth inhibition %
SF-295 = settings: Homo sapiens; SF-295, CNS Cancer panel; single dose 10^−5 M; read-out: Growth inhibition %
MALME-3M = settings: Homo sapiens, Melanoma panel, single dose 10^−5 M, read-out: Growth inhibition %
786-0 = settings: Homo sapiens; 786-0, Renal Cancer panel; single dose 10^−5 M; read-out: Growth inhibition %
NCI-H23 = settings: Homo sapiens; NCI-H23, Non-small cell lung panel; single dose 10^−5 M; read-out: Growth inhibition %
HOP-62 = settings: Homo sapiens; HOP-62, Non-small cell lung panel; single dose 10^−5 M; read-out: Growth inhibition %
COLO 205 = settings: Homo sapiens; COLO 205, Colon Cancer panel; single dose 10^−5 M; read-out: Growth inhibition %
UO-31 = settings: Homo sapiens; UO-31, Renal Cancer panel; single dose 10^−5 M; read-out: Growth inhibition %
M14 = settings: Homo sapiens; M14, Melanoma panel; single dose 10^−5 M; read-out: Growth inhibition %

Row | Compound | inhibition at 10 µM (HCT-116) [%] | inhibition at 10 µM (MOLT-4) [%] | inhibition at 10 µM (OVCAR-8) [%] | inhibition at 10 µM (SR) [%] | inhibition at 10 µM (UACC-257) [%] | inhibition at 10 µM (NCI/ADR-RES) [%] | inhibition at 10 µM (T-47D) [%] | inhibition at 10 µM (TK-10) [%] | inhibition at 10 µM (SN12C) [%] | inhibition at 10 µM (HCT-15) [%] | inhibition at 10 µM (OVCAR-3) [%] | inhibition at 10 µM (OVCAR-5) [%] | inhibition at 10 µM (SK-MEL-5) [%] | inhibition at 10 µM (A498) [%] | inhibition at 10 µM (MDA-MB-435) [%] | inhibition at 10 µM (OVCAR-4) [%] | inhibition at 10 µM (HS 578T) [%] | inhibition at 10 µM (NCI-H522) [%] | inhibition at 10 µM (MCF7) [%] | inhibition at 10 µM (EKVX) [%] | also measured
1 | Clc1ccccc1CNc1c2ccccc2nc2ccccc12 [Compound 11, Acridin-9-yl-(2-chlorobenzyl)-amine] | 91.9 | 94.9 | 76.2 | 99.5 | 55.7 | 76.2 | 69.5 | 57.5 | 72.2 | 86.4 | 46.4 | 67.4 | 58.2 | 106 | 72.8 | 86.9 | 50 | 71.5 | 100 | 74.1 | inhibition at 10 µM (HL-60(TB)): 86.4%; inhibition at 10 µM (UACC-62): 59%; inhibition at 10 µM (HCC-2998): 117%; inhibition at 10 µM (SF-295): 78.3%; inhibition at 10 µM (MALME-3M): 81%; inhibition at 10 µM (786-0): 75.5%; inhibition at 10 µM (NCI-H23): 78.4%; inhibition at 10 µM (HOP-62): 59.1%; inhibition at 10 µM (COLO 205): 99.5%; inhibition at 10 µM (UO-31): 82.5%; inhibition at 10 µM (M14): 81.9%
2 | Clc1cccc(CNc2c3ccccc3nc3ccccc23)c1 [Compound 12, Acridin-9-yl-(3-chlorobenzyl)-amine] | 91.3 | 98.9 | 68.9 | 104 | 54.6 | 73.7 | 59.1 | 47.9 | 76.4 | 86 | 42.3 | 67.6 | 33.8 | 103 | 53.4 | 81.2 | 46.3 | 58.3 | 99.1 | 72.8 | inhibition at 10 µM (HL-60(TB)): 91%; inhibition at 10 µM (UACC-62): 47.5%; inhibition at 10 µM (HCC-2998): 154%; inhibition at 10 µM (SF-295): 79.2%; inhibition at 10 µM (MALME-3M): 55%; inhibition at 10 µM (786-0): 74.8%; inhibition at 10 µM (NCI-H23): 68%; inhibition at 10 µM (HOP-62): 54.5%; inhibition at 10 µM (COLO 205): 99.5%; inhibition at 10 µM (UO-31): 84%; inhibition at 10 µM (M14): 64.5%
3 | c1coc(CNc2c3ccccc3nc3ccccc23)c1 [Compound 14, Acridin-9-yl-furan-2-ylmethyl-amine] | 76 | 72.8 | 52.5 | 66 | 18.3 | 55.2 | 30.7 | 11.6 | 46.5 | 55.8 | 3.11 | 23.6 | 15.7 | 79.9 | 12.4 | 43.1 | 16 | 52.7 | 78.7 | 38 | inhibition at 10 µM (HL-60(TB)): 6.96%; inhibition at 10 µM (UACC-62): 33.9%; inhibition at 10 µM (HCC-2998): 31.1%; inhibition at 10 µM (SF-295): 46.1%; inhibition at 10 µM (MALME-3M): 9.63%; inhibition at 10 µM (786-0): 34.3%; inhibition at 10 µM (NCI-H23): 36.4%; inhibition at 10 µM (HOP-62): 30.4%; inhibition at 10 µM (COLO 205): 64.8%; inhibition at 10 µM (UO-31): 60.5%; inhibition at 10 µM (M14): 20.3%
4 | COc1ccc(CNc2c3ccccc3nc3ccccc23)cc1F [Compound 19, Acridin-9-yl-(3-fluoro-4-methoxybenzyl)-amine] | 87.7 | 91.1 | 70.6 | 95.2 | 62.2 | 79.2 | 65 | 63.9 | 74.1 | 89 | 47.8 | 63.1 | 63.5 | 106 | 92.4 | 73.8 | 54.5 | 63.8 | 97.7 | 73.9 | inhibition at 10 µM (HL-60(TB)): 87.1%; inhibition at 10 µM (UACC-62): 57.5%; inhibition at 10 µM (HCC-2998): 94.2%; inhibition at 10 µM (SF-295): 79.9%; inhibition at 10 µM (MALME-3M): 76.4%; inhibition at 10 µM (786-0): 74%; inhibition at 10 µM (NCI-H23): 73%; inhibition at 10 µM (HOP-62): 55.5%; inhibition at 10 µM (COLO 205): 91.3%; inhibition at 10 µM (UO-31): 86.5%; inhibition at 10 µM (M14): 80.1%
5 | COc1ccc2nc3ccccc3c(NCc3ccc(C)cc3)c2c1 [Compound 26, (2-Methoxyacridin-9-yl)-(4-methylbenzyl)-amine] | 91.4 | 99.7 | 71.3 | 113 | 108 | 76.2 | 69.4 | 53 | 76.4 | 88.6 | 53.1 | 66 | 65.6 | 102 | 57.8 | 81.5 | 57.3 | 73.6 | 96.6 | 64.8 | inhibition at 10 µM (HL-60(TB)): 100%; inhibition at 10 µM (UACC-62): 44.3%; inhibition at 10 µM (HCC-2998): 158%; inhibition at 10 µM (SF-295): 76.4%; inhibition at 10 µM (MALME-3M): 78%; inhibition at 10 µM (786-0): 84.2%; inhibition at 10 µM (NCI-H23): 71.7%; inhibition at 10 µM (HOP-62): 61%; inhibition at 10 µM (COLO 205): 141%; inhibition at 10 µM (UO-31): 86.7%; inhibition at 10 µM (M14): 71.3%
6 | COc1ccc(CNc2c3ccccc3nc3ccc(OC)cc23)cc1 [Compound 27, (2-Methoxyacridin-9-yl)-(4-methoxybenzyl)-amine] | 87.3 | 100 | 74.6 | 116 | 93.4 | 83.8 | 65.8 | 66.4 | 79.2 | 94.7 | 59.6 | 69.3 | 88.9 | 106 | 81 | 81.6 | 74.1 | 73.8 | 130 | 75.8 | inhibition at 10 µM (HL-60(TB)): 121%; inhibition at 10 µM (UACC-62): 57.4%; inhibition at 10 µM (HCC-2998): 158%; inhibition at 10 µM (SF-295): 80.6%; inhibition at 10 µM (MALME-3M): 92.9%; inhibition at 10 µM (786-0): 85%; inhibition at 10 µM (NCI-H23): 78.6%; inhibition at 10 µM (HOP-62): 65.9%; inhibition at 10 µM (COLO 205): 151%; inhibition at 10 µM (UO-31): 93.8%; inhibition at 10 µM (M14): 80.5%
